Measured values as given in patent US20260265246A1 (ICAHN SCHOOL OF MEDICINE AT MOUNT SINAI, priority 2021, published 2026).
Where two headings read alike, the source gives them in different places.

What was measured:
[1] = target: T1, 5HT2A receptor (Homo sapiens, UniProt P28223); assay: biochemical; format: binding; set-up: expressed in transfected cells; crude membranes
[2] = target: T1, 5HT2A receptor; assay: cell-based; set-up: expressed in transfected cells; host or cells: HEK293T cells, transient co-transfection; conditions: for Emax: HEK-293T
[3] = target: T1, 5HT2A receptor; assay: cell-based; set-up: expressed in transfected cells; host or cells: HEK293T cells, transient co-transfection; conditions: for Emax: HEK-293T; remark: listed apart in the source
[4] = 5HT2A Ki (nM), secondary radioligand binding, Ki from IC50 by Cheng-Prusoff
[5] = 5HT2A Gq EC50 (nM), BRET2 Gαq dissociation, HEK293T cells
[6] = BRET2 Gαq dissociation, HEK293T cells, normalized to 5-HT, read-out: 5HT2A Gq Emax (%)
[7] = 5HT2A β-Arr EC50 (nM), BRET1 beta-arrestin2 recruitment, HEK293T cells
[8] = BRET1 beta-arrestin2 recruitment, HEK293T cells, normalized to 5-HT, read-out: 5HT2A β-Arr Emax (%)
[9] = secondary radioligand binding, Ki from IC50 by Cheng-Prusoff, read-out: 5HT2A Ki
[10] = BRET2 Gαq dissociation, HEK293T cells, read-out: 5HT2A Gq EC50
[11] = BRET1 beta-arrestin2 recruitment, HEK293T cells, read-out: 5HT2A β-Arr EC50
[12] = 5HT2A Ki (nM), secondary binding assay, Cheng-Prusoff
[13] = BRET2 Gαq dissociation, HEK293T, read-out: 5HTA Gq EC50
[14] = BRET2 Gαq dissociation, HEK293T, normalized to 5-HT, read-out: 5HTA Gq Emax (%)
[15] = 5HT2A β-Arr EC50 (nM), BRET1 beta-arrestin2 recruitment, HEK293T
[16] = BRET1 beta-arrestin2 recruitment, HEK293T, normalized to 5-HT, read-out: 5HT2A β-Arr Emax (%)
[17] = 5HTA Gq EC50 (nM), BRET2 Gαq dissociation, HEK293T
[18] = read-out: 5HTA Gq Emax (%), BRET2 Gαq dissociation, HEK293T, normalized to 5-HT
[19] = read-out: 5HT2A β-Arr Emax (%), BRET1 beta-arrestin2 recruitment, HEK293T, normalized to 5-HT
[20] = secondary binding assay, Cheng-Prusoff, read-out: 5HT2A Ki
[21] = BRET1 beta-arrestin2 recruitment, HEK293T, read-out: 5HT2A β-Arr EC50

T1 sequence (P28223 whole entry): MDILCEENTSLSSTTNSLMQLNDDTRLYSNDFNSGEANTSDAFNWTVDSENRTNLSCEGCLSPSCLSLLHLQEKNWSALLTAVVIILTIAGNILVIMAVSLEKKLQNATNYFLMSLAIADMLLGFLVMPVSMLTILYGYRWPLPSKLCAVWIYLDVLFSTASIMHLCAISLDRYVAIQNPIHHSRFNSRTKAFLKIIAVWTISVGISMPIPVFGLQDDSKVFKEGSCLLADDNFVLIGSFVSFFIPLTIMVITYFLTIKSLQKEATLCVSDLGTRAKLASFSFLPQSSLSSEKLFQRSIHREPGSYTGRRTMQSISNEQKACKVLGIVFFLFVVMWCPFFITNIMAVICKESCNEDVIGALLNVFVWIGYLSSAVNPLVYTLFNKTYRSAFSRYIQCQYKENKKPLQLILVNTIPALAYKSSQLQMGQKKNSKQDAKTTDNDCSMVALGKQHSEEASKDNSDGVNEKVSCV

| Structure (SMILES) | Ki [1, 4] [nM] | Emax [2, 6] [%] | EC50 [3, 7] [nM] | Emax [3, 8] [%] | EC50 [2, 10] [nM] | Ki [1, 12] [nM] | Emax [2, 14] [%] | EC50 [3, 15] [nM] | Emax [3, 16] [%] | other results |
| --- | --- | --- | --- | --- | --- | --- | --- | --- | --- | --- |
| Fc1cccc2c(C3=CCCN(Cc4ccccc4)C3)c[nH]c12 [Example 73, 3-(1-benzyl-1,2,5,6-tetrahydropyridin-3-yl)-7-fluoro-1H-indole] | 151 | 81.9 | 331 | 56.5 | – | – | – | – | – | EC50 [2, 5]: 116 nM |
| C1=C(c2n[nH]c3ccccc23)CNCC1 [Example 45, 3-(1,2,5,6-tetrahydropyridin-3-yl)-1H-indazole] | 113 | 98.3 | 138 | 68.1 | – | – | – | – | – | – |
| CN1CCC=C(c2c[nH]c3c(Cl)cccc23)C1 [Example 44, 7-chloro-3-(1-methyl-1,2,5,6-tetrahydropyridin-3-yl)-1H-indole] | – | 86.6 | – | 37.6 | 18.9 | – | – | – | – | Ki [1, 9]: 76.3 nM; EC50 [3, 11]: 78.8 nM |
| COc1cccc2[nH]cc(C3=CCCN(C)C3)c12 [Example 20, 4-methoxy-3-(1-methyl-1,2,5,6-tetrahydropyridin-3-yl)-1H-indole] | – | 91 | – | 47.7 | 3 | – | – | – | – | Ki [1, 9]: 60 nM; EC50 [3, 11]: 61.8 nM |
| Clc1cnc2[nH]cc(C3=CCCNC3)c2c1 [Example 3, 5-chloro-3-(1,2,5,6-tetrahydropyridin-3-yl)-1H-pyrrolo[2,3-b]pyridine] | 143 | 82 | 229 | 43.8 | – | – | – | – | – | EC50 [2, 5]: 29.4 nM |
| CCCN1CCC=C(c2n[nH]c3cccc(C#N)c23)C1 [Example 175, 3-(1-propyl-1,2,5,6-tetrahydropyridin-3-yl)-1H-indazole-4-carbonitrile] | – | – | – | – | – | 8250 | 46.3 | 343 | 31.6 | EC50 [2, 13]: 88.8 nM |
| CCCN1CCC=C(c2c[nH]c3c(C)c(F)ccc23)C1 [Example 162, 6-fluoro-7-methyl-3-(1-propyl-1,2,5,6-tetrahydropyridin-3-yl)-1H-indole] | – | – | – | – | – | 1140 | 80.6 | 303 | 23.4 | EC50 [2, 17]: 260 nM |
| CN1CCC=C(c2n[nH]c3cc(F)ccc23)C1 [Example 95, 6-fluoro-3-(1-methyl-1,2,5,6-tetrahydropyridin-3-yl)-1H-indazole] | – | 47.1 | – | 27 | 21.1 | – | – | – | – | Ki [1, 9]: 47.3 nM; EC50 [3, 11]: 467 nM |
| Cc1cccc2c(C3=CCCN(Cc4ccccc4)C3)c[nH]c12 [Example 68, 3-(1-benzyl-1,2,5,6-tetrahydropyridin-3-yl)-7-methyl-1H-indole] | 115 | 40.2 | 490 | 42.4 | – | – | – | – | – | EC50 [2, 5]: 127 nM |
| Fc1cccc2c(C3=CCCNC3)n[nH]c12 [Example 90, 7-fluoro-3-(1,2,5,6-tetrahydropyridin-3-yl)-1H-indazole] | 1390 | 95.6 | – | 70 | 9.2 | – | – | – | – | EC50 [3, 11]: 86 nM |
| CCCN1CCC=C(c2c[nH]c3c(Cl)c(F)ccc23)C1 [Example 160] | – | – | – | – | – | 151 | – | 144 | – | EC50 [2, 17]: 74.5 nM; Emax [2, 18]: 84.1%; Emax [3, 19]: 30.9% |
| C1=C(c2c[nH]c3cccnc23)CNCC1 [Example 138, 3-(1,2,5,6-tetrahydropyridin-3-yl)-1H-pyrrolo[3,2-b]pyridine] | – | – | – | – | – | 147 | 79 | 1420 | 101 | EC50 [2, 17]: 118 nM |
| CCCN1CCC=C(c2c[nH]c3c(CC)cccc23)C1 [Example 158, 7-ethyl-3-(1-propyl-1,2,5,6-tetrahydropyridin-3-yl)-1H-indole] | – | – | – | – | – | 368 | 82.2 | 120 | 32.6 | EC50 [2, 13]: 78.4 nM |
| Cc1cccc2[nH]nc(C3=CCCN(C)C3)c12 [Example 97, 4-methyl-3-(1-methyl-1,2,5,6-tetrahydropyridin-3-yl)-1H-indazole] | 786 | 69 | 605 | 64.6 | 80.4 | – | – | – | – | – |
| Clc1cccc2c(C3CNC3)c[nH]c12 [Example 255, 3-(azetidin-3-yl)-7-chloro-1H-indole] | – | – | – | – | – | 159 | – | 302 | – | EC50 [2, 17]: 68.2 nM; Emax [2, 18]: 81.1%; Emax [3, 19]: 42.3% |
| CCCN1CCC=C(c2c[nH]c3c(C)cc(F)cc23)C1 [Example 161, 5-fluoro-7-methyl-3-(1-propyl-1,2,5,6-tetrahydropyridin-3-yl)-1H-indole] | – | – | – | – | – | 488 | 93.2 | 311 | 35.2 | EC50 [2, 13]: 84.1 nM |
| Cc1cccc2[nH]cc(C3=CCCNC3)c12 [Example 17, 4-methyl-3-(1,2,5,6-tetrahydropyridin-3-yl)-1H-indole] | – | 85.7 | – | 42 | 22 | – | – | – | – | Ki [1, 9]: 11.5 nM; EC50 [3, 11]: 147 nM |
| CN1CCC=C(c2n[nH]c3cccc(C#N)c23)C1 [Example 99, 3-(1-methyl-1,2,5,6-tetrahydropyridin-3-yl)-1H-indazole-4-carbonitrile] | 491 | 80 | 1010 | 43.8 | 96.4 | – | – | – | – | – |
| Fc1ccc2c(C34CNCC3C4)c[nH]c2c1Cl (stereo not drawn) [Example 280, 3-(3-azabicyclo[3.1.0]hexan-1-yl)-7-chloro-6-fluoro-1H-indole] | – | – | – | – | – | 63.8 | – | 256 | – | EC50 [2, 17]: 38.1 nM; Emax [2, 18]: 81.6%; Emax [3, 19]: 55.6% |
| Cc1cccc2c(C3=CCCNC3)n[nH]c12 [Example 88, 7-methyl-3-(1,2,5,6-tetrahydropyridin-3-yl)-1H-indazole] | 211 | 72.6 | 227 | 64.8 | 52.8 | – | – | – | – | – |
| Cc1cccc2c(C34CCNCC3C4)n[nH]c12 (stereo not drawn) [Example 226, 3-(3-azabicyclo[4.1.0]heptan-6-yl)-7-methyl-1H-indazole] | – | – | – | – | – | 4630 | 91 | 2000 | 52.1 | EC50 [2, 17]: 1350 nM |
| Clc1cccc2c(C3=CCCCNC3)n[nH]c12 [Example 208, 7-chloro-3-(2,5,6,7-tetrahydro-1H-azepin-3-yl)-1H-indazole] | – | – | – | – | – | > 10000 | – | 1900 | – | EC50 [2, 17]: 849 nM; Emax [2, 18]: 95.7%; Emax [3, 19]: 48.9% |
| CN1CCC=C(c2c[nH]c3cccc(-c4ccccc4)c23)C1 [Example 21, 3-(1-methyl-1,2,5,6-tetrahydropyridin-3-yl)-4-phenyl-1H-indole] | 14 | 59.6 | 358 | 15.1 | – | – | – | – | – | EC50 [2, 5]: 874 nM |
| Fc1ccc(Cl)c2[nH]nc(C3=CCCNC3)c12 [Example 131, 7-chloro-4-fluoro-3-(1,2,5,6-tetrahydropyridin-3-yl)-1H-indazole] | – | – | – | – | – | – | 106 | – | 72.7 | Ki [1, 20]: 47.5 nM; EC50 [2, 13]: 7.2 nM; EC50 [3, 21]: 17.4 nM |
| Fc1cnc2[nH]cc(C3=CCCNC3)c2c1 [Example 120, 5-fluoro-3-(1,2,5,6-tetrahydropyridin-3-yl)-1H-pyrrolo[2,3-b]pyridine] | 53.6 | 100 | 67.4 | 60.4 | – | – | – | – | – | EC50 [2, 5]: 21.5 nM |
| CN1CCC=C(c2n[nH]c3c(Cl)cc(F)cc23)C1 [Example 130, 7-chloro-5-fluoro-3-(1-methyl-1,2,5,6-tetrahydropyridin-3-yl)-1H-indazole] | – | – | – | – | – | – | 91.4 | – | 88.5 | Ki [1, 20]: 19.5 nM; EC50 [2, 13]: 12.9 nM; EC50 [3, 21]: 165 nM |
| CN1CCC=C(c2c[nH]c3c(Cl)cc(F)cc23)C1 [Example 115, 7-chloro-5-fluoro-3-(1-methyl-1,2,5,6-tetrahydropyridin-3-yl)-1H-indole] | – | 114 | 576 | 59.7 | 51.1 | – | – | – | – | Ki [1, 9]: 20.8 nM |
| Clc1cccc2c(C3=CCNC3)c[nH]c12 [Example 209, 7-chloro-3-(2,5-dihydro-1H-pyrrol-3-yl)-1H-indole] | – | – | – | – | – | 160 | 100 | – | 88.1 | EC50 [2, 13]: 8.1 nM; EC50 [3, 21]: 60.7 nM |
| CN1CCC=C(c2n[nH]c3c(F)cccc23)C1 [Example 107, 7-fluoro-3-(1-methyl-1,2,5,6-tetrahydropyridin-3-yl)-1H-indazole] | 883 | – | 213 | – | – | – | – | – | – | EC50 [2, 5]: 34.5 nM; Emax ([2]; read-out: 5HT2A Gq Emax (%), BRET2 Gαq dissociation, HEK293T cells, normalized to 5-HT): 68.1%; Emax ([3]; read-out: 5HT2A β-Arr Emax (%), BRET1 beta-arrestin2 recruitment, HEK293T cells, normalized to 5-HT): 36.3% |
